{"source": "patent US20220349875A1", "about": "“METHOD TO INDEPENDENTLY ANALYZE MULTIPLE BIOLOGICAL PROCESSES IN ENCAPSULATED 3D CELL CO-CULTURES” (UNIVERSITÉ DE GENÈVE, priority 2019, published 2022)", "key": {"[1]": {"tested_on": "BC cells stably expressing the dual-reporter FUCCI", "experiment": "Proliferation of encapsulated BC cells (FUCCI dual reporter), monoculture or multi-culture with LC cells", "format": "cell-based", "conditions": "micromolar Tamoxifen (1 μM to 10 μM), 96 hours; FIG. 5", "source_text": "LC cells were encapsulated in green-labelled alginate capsules, BC cells stably expressing the dual reporter gene FUCCI (active proliferating cells are green, not-proliferating cells (latent) are red) were encapsulated in unlabelled alginate capsules, and BC cells stably expressing the reporter gene zipGFP-Casp3 (all cells are red (reporter expression control) and cells become green upon apoptosis induction) were encapsulated in far-red-labelled alginate capsules. […] Image acquisition was performed with an automated confocal microscope. Cell segmentation and quantification of cell fluorescence intensities were performed with the software MetaXpress (Molecular Devices). For the quantification of proliferation, cell fluorescence intensities from unlabelled capsules were measured. […] Data is representative of 3 independent replicates.\nInduction of apoptosis is measured by automated confocal microscopy (HCS) in BC cells stably expressing the reporter zipGFP-Casp3 and proliferation is measured at the same time in BC cells stably expressing the dual-reporter FUCCI. […]"}, "[2]": {"tested_on": "BC cells stably expressing the reporter zipGFP-Casp3", "experiment": "Apoptosis of encapsulated BC cells (zipGFP-Casp3 reporter), monoculture or multi-culture with LC cells", "format": "cell-based", "conditions": "micromolar Tamoxifen (1 μM to 10 μM), 96 hours, with vs without LC cells; FIG. 4", "method": "Image acquisition was performed with an automated confocal microscope. Cell segmentation and quantification of cell fluorescence intensities were performed with the software MetaXpress (Molecular Devices). For the quantification of apoptosis, cell fluorescence intensities from far-red-labelled capsules were measured and the green fluorescence was normalized with the red fluorescence. […] Data is representative of 3 independent replicates.\nDispense capsules in wells of a 96-well imaging quality plate by continuously pipetting up and down to maintain the capsules in suspension before transferring the proper volume into the well.\nHalf of wells are not filled with LC capsules (conditions with BC cells only)\nIncubate the plate at 37° C. for 96 hours."}}, "data": [{"smiles": "CC/C(=C(\\c1ccccc1)c1ccc(OCCN(C)C)cc1)c1ccccc1", "note": "[Tamoxifen]", "values": [{"measurement": "cell proliferation inhibition", "setting": "[1]", "value": "already maximal at 1 μM"}, {"measurement": "induction of apoptosis in BC cells", "setting": "[2]", "value": "increased by Tamoxifen in a dose-dependent manner only in co-culture with LC cells"}]}]}
